The assay has as its target T1, presenilin-1 (PS1) (Homo sapiens, UniProt P49768).
T1 construct: gene PSEN1; PS1-NTF
Briefly: dose-dependent competition with XYT1032 photo-affinity labelling in HEK293T cells ([…]). Format: cell-based.

The source of these data is paper PMC4860824, “Targeting the γ-/β-secretase interaction reduces β-amyloid generation and ameliorates Alzheimer’s disease-related pathogenesis” (Cell Discovery, 2015).

In the case of `C=C1CCC2(C(=O)O)CC[C@]3(C)C(=CC[C@H]4C3(C)CC[C@H]3C(C)(C)[C@H](O)CC[C@@]34C)[C@@H]2C1` (stereo partly drawn) [3AA, 3-α-Akebonoic acid], the “dose-dependent competition with XYT1032 photo-affinity labelling in HEK293T cell” value was “in the presence of XYT472B or 3AA, the labeling of PS1-NTF was decreased dose dependently”.
